“And” between values parts separate entries of the source, which are not always exact repeats. Equal entries are not always repeated.
Experiments:
[1] = Weight change, survival and clinical status in the CT26 allograft model (Example 9); format: in vivo
Experimental: The health status and death of animals was monitored every day. Routine examination included observing the effects of tumor growth and drug treatment on the daily behavior of animals, such as behavioral activities, food and water intake (visual observation only), body weight change, appearance signs or other abnormal conditions. Based on the number of animals in each group, the death number and side effects of animals in the group were recorded.
The assay was carried out according to the administration scheme. During the assay, animal activities such as eating and drinking were observed daily, and animal weight was recorded 2˜3 times a week. […] The body weight of the three-drug combined group of MRTX1133+IN10018+TIGIT (5+25+3 mg/kg) group changed from 19.5 g on the day of group administration (Day 0) to 21.2 g on the 16th day, and the change rate of body weight was […].

[2] = test system: KPL tumor; assay: Anti-tumor efficacy in KPL model in C57BL/6 mice (Example 12); format: in vivo; settings: MRTX133 5 mg/kg IP BID, ANTI MOUSE PD-1 10 mg/kg IP BIW, IN10018 25 mg/kg PO QD
Experimental: 45 female C57BL/6 mice, 6-8 weeks old and 19 to 25 g in weight, were used in this study. The mice, marked by ear coding, were kept in Individual Ventilation Cages at constant temperature (20-26° C.) and humidity (40%-70%) with 3 animals in each cage. Animals had free access to irradiation sterilized dry granule food (Keao Xieli (Tianjin) Feed Co., Ltd) and sterile drinking water during the entire study period.
KPL cells were maintained in vitro in RPMI-1640 medium supplemented with 10% FBS and 1% P.S. at 37° C. in an atmosphere of 5% CO2 in air. The tumor cells were routinely sub-cultured three times weekly. KPL cells growing in an exponential growth phase were resuspended in PBS and adjusted concentration to 2×10^6/mL for tumor injection.
Each mouse was injected subcutaneously at the right flank with 0.1 mL KPL cell suspension (0.2×10^6) for tumor development. When tumor reach around 60 mm^3 on the 7th day after cell injection, mice were randomly grouped according to tumor volume, followed by drug administration. The day of grouping was defined as day 0.
The major endpoint is to see if the tumor growth can be delay or mice can be cured. Tumor sizes were measured three times weekly in two dimensions using a caliper (No. 105688, sylvac Dantsin), and the volume was expressed in mm^3 using the formula: V=0.5×a×b^2 (a, long diameters; b, short diameters). The tumor sizes were then used for the calculations of T/C (%) values. T/C (%) was calculated using the formula: T/C (%)=(Ti−T0)/(Vi−V0)×100%, Ti was the average tumor volume of a treatment group on a given day, T0 was the average tumor volume of the treatment group on the first day of treatment, Vi was the average tumor volume of the vehicle control group on the same day with Ti, and V0 was the average tumor volume of the vehicle group on the first day of treatment.
TGI was calculated for each group using the formula: TGI (%)=100%-T/C (%).
Efficacy study was euthanized on D28 after treatment according to requirement, tumors were collected and photographed, tumor weight were recorded meanwhile. Tumors were selected from each group and stored in 10% Formalin for the following research.
Summary statistics, including mean and the standard error of the mean (SEM), are provided for the tumor volume of each group at each time point. Statistical analysis of difference in tumor volume and tumor weight versus Vehicle group were conducted on the data obtained at each time point. T-test was performed to compare tumor volume among groups. A value of p<0.05 was considered to be statistically significant.

[3] = Body weight / tolerability of KPL tumor-bearing mice (Example 12); format: in vivo; settings: KPL tumor-bearing C57BL/6 mice
Experimental: All the procedures related to animal handling, care and the treatment in the study were conducted according to guidelines approved by the Institutional Animal Care and Use Committee (IACUC) following the guidance of the Association for Assessment and Accreditation of Laboratory Animal Care (AAALAC). At the time of routine monitoring, the animals were daily checked for any effects of tumor growth and treatments on normal behavior such as mobility, food and water consumption (by looking only), body weight gain/loss (body weights were measured every two days or twice weekly), eye/hair matting and any other abnormal effects as stated in the protocol. Death and observed clinical signs were recorded on the basis of the numbers of animals within each subset.
The body weight of KPL tumor-bearing mice was monitored regularly as an indirect index of toxicity.

[4] = test system: Mouse colon cancer CT26 cells; assay: Proliferation of CT26 cells, CCK8, MRTX1133 with or without IN10018 (Example 3); format: cell-based; settings: 72 hours, combination group: 5 μM IN10018 added to each well
Experimental: Mouse colon cancer CT26 cells (Insitute of Biochemistry and Cell Biology) were cultured with RPMI-1640 (Shanghai Basalmedia, classification number: L210KJ, batch number: F210916)+10% FBS (Gibco, classification number: 10099-141c, batch number: 2158737cp) and passaged twice. When the cells were in good condition, the culture solution was placed in a 96-well plate with 3000 cells/well. After the cells were spread for 24 hours, a culture medium containing MRTX1133 (SuperLan Chemical Co., Ltd., classification number: P2621928-55-8, batch number: 131005) was added. 10 drug action concentrations were set, wherein the first concentration was 30 μM, which was serially diluted 5 times, and the last concentration was a control with a drug concentration of 0. Each drug concentration was set in triplicate. At the same time, another group of cells was established with the same drug concentration as the above method. The difference was that 5 μM IN10018 was added to each well. The drugs were mixed and the mixture was cultured in a 5% CO2 incubator at 37° C. for 72 hours.
After 72 hours of drug action, the cells were observed under a microscope, and 10 μl of CCK8 detection reagent (Cellorlab, classification number: CX001M, batch number: 2571100) was added to each well. […] Then the plate was read with a microplate reader OD450 ([…]).

C#Cc1c(F)ccc2cc(O)cc(-c3ncc4c(N5CC6CCC(C5)N6)nc(OC[C@@]56CCCN5C[C@H](F)C6)nc4c3F)c12 [MRTX1133]
Weight on Day 0 ([1]; Day 0, at grouping, mean ± SD): 19.4 g and 19.4 ± 0.8 g | Weight change rate (%) ([1]; Day 16 vs Day 0): 15.1% | Weight on Day 14/16 ([1]; administration groups: 16th day after group administration, mean ± SD): 22.3 g and 22.3 ± 0.8 g | Animal survival ([1]; number of animals alive on day 0/number alive on day 16): 6/6 | T/C (%) ([2]; Day 3 after treatment): 15.72% | TGI (%) ([2]; Day 3 after treatment): 84.28% | T/C (%) ([2]; Day 7 after treatment): −50.80% | TGI (%) ([2]; Day 7 after treatment): 150.80% | T/C (%) ([2]; Day 10 after treatment): 2.69% | TGI (%) ([2]; Day 10 after treatment): 97.31% | T/C (%) ([2]; Day 14 after treatment): 30.94% | TGI (%) ([2]; Day 14 after treatment): 69.06% | T/C (%) ([2]; Day 17 after treatment): 56.17% | TGI (%) ([2]; Day 17 after treatment): 43.83% | T/C (%) ([2]; Day 21 after treatment): 58.22% | TGI (%) ([2]; Day 21 after treatment): 41.78% | T/C (%) ([2]; Day 24 after treatment): 61.87% | TGI (%) ([2]; Day 24 after treatment): 38.13% | T/C (%) ([2]; Day 28 after treatment): 71.43% | TGI (%) ([2]; Day 28 after treatment): 28.57% | tumor volume ([2]; day 28): 579.34 mm^3 | tolerability in KPL model [3]: well-tolerated | IC50 [4]: 0.28 µM

From patent publication US20240285627A1, “DRUG COMBINATION OF FAK INHIBITOR AND IMMUNOGENIC CELL DEATH INDUCER AND USE THEREOF” (INXMED (NANJING) CO., LTD., priority 2022, published 2024)
